Experimental data reported in patent US10758534B2 (Vertex Pharmaceuticals Incorporated, priority 2014, dated 2020).
Like-named read-outs stand apart in the source and are kept apart here.

Target: T1, F508del (Homo sapiens, UniProt P13569, DEL508-508)
T1 construct: expressed in transfected cells
Test: Protocol 2: FRET membrane potential optical assay (VIPR), identification of correction compounds
Type: cell-based
Procedure, shortened: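 NIH3T3 mouse fibroblasts stably expressing F508del-CFTR incubated with compound 16 h at 37 °C in serum-free medium, then loaded with CC2-DMPE/DiSBAC2(3) FRET dyes. Channel activated with 10 μM forskolin plus 20 μM genistein in Cl⁻-free (gluconate) bath; depolarisation from Cl⁻ efflux read on VIPR II.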

[1] = F508del CFTR modulator activity, compounds of Table 1, read-out: EC30
[2] = Table 3, compounds of Table 1 as modulators of CFTR activity, protocol not stated

T1 sequence (P13569 with tags, fused parts or gaps DEL508-508): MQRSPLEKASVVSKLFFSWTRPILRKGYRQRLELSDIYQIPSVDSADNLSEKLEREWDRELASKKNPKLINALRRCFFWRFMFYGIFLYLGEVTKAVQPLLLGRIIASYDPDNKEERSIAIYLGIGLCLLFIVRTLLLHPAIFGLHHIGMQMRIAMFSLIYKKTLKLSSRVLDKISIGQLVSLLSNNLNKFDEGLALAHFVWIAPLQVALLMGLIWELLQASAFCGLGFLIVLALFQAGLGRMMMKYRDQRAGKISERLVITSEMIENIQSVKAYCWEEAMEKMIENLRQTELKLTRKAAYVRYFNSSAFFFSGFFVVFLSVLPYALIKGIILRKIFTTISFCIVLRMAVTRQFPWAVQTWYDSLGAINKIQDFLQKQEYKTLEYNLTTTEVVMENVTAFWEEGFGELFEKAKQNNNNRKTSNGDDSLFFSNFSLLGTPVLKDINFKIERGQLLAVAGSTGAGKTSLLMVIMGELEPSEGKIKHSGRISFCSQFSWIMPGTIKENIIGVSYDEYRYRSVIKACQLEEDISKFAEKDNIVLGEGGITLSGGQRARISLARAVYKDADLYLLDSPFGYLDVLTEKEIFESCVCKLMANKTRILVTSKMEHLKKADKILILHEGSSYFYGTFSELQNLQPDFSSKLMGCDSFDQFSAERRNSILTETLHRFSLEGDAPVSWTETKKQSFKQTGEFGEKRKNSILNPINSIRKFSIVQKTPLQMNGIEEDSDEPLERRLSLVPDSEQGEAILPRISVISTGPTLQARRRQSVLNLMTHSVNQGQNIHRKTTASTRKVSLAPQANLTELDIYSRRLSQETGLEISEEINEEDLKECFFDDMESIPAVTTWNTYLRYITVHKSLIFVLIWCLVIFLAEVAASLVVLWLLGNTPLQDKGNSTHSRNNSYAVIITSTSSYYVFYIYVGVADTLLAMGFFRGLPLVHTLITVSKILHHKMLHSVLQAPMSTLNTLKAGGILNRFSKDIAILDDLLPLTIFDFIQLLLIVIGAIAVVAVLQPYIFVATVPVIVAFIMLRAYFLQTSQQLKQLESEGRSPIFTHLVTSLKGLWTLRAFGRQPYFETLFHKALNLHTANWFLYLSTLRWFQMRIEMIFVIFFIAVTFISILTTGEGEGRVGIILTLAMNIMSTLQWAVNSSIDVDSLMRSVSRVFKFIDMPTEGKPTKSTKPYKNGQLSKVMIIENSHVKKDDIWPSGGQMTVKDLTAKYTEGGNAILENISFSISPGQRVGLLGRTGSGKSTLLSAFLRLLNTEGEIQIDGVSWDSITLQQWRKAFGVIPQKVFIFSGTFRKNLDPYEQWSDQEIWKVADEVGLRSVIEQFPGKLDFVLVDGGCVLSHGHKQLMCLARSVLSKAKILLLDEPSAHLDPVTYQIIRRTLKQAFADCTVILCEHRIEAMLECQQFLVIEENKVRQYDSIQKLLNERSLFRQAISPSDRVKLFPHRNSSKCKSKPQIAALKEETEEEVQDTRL

Row | SMILES | EC30 [1] [µM] | EC30 [2] | other results
1 | CC1CN(c2ncccc2C(=O)NS(=O)(=O)c2cccc(NCCc3ccccn3)n2)C(C)(C)C1 (stereo not shown) [Compound 2359, N—[[6-[2-(2-pyridyl)ethylamino]-2-pyridyl]sulfonyl]-2-(2,2,4-trimethylpyrrolidin-1-yl)pyridine-3-carboxamide] | 3 to 10 | – | –
2 | CC1CN(c2ncccc2C(=O)NS(=O)(=O)c2cccc(Nc3ccccc3C#N)n2)C(C)(C)C1 (stereo not shown) [Compound 2659, N—[[6-(2-cyanoanilino)-2-pyridyl]sulfonyl]-2-(2,2,4-trimethylpyrrolidin-1-yl)pyridine-3-carboxamide] | 3 to 10 | – | –
3 | C[C@@H]1CN(c2nc(-c3cccc(F)c3F)ccc2C(=O)NS(=O)(=O)c2ccc[nH]c2=O)C(C)(C)C1 [Compound 2162, 6-(2,3-difluorophenyl)-N-[(2-oxo-1H-pyridin-3-yl)sulfonyl]-2-[(4S)-2,2,4-trimethylpyrrolidin-1-yl]pyridine-3-carboxamide] | < 3 | – | –
4 | CC(C)COc1cc(F)cc(-c2ccc(C(=O)NS(=O)(=O)c3cccc(N)n3)c(N3CC(C)CC34CCC4)n2)c1 (single isomer, unassigned) [Compound 2552, N-[(6-amino-2-pyridyl)sulfonyl]-6-(3-fluoro-5-isobutoxy-phenyl)-2-(6-methyl-8-azaspiro[3.4]octa N-8-yl)pyridine-3-carboxamide] | – | – | EC30 (F508del CFTR modulator activity, compounds of Table 1): +++ (“+++” means <3 uM)
5 | CC(C)COc1cc(F)cc(-c2ccc(C(=O)NS(=O)(=O)c3cccc(N)n3)c(N3CCC[C@H]3C(=O)OC(C)(C)C)n2)c1 [Compound 2204, tert-butyl (2S)-1-[3-[(6-amino-2-pyridyl)sulfonylcarbamoyl]-6-(3-fluoro-5-isobutoxy-phenyl)-2-pyridyl]pyrrolidine-2-carboxylate] | < 3 | – | –
6 | CC1CCN(c2cccc(S(=O)(=O)NC(=O)c3cccnc3N3CC(C)CC3(C)C)n2)CC1 (stereo not shown) [Compound 2330, N—[[6-(4-methyl-1-piperidyl)-2-pyridyl]sulfonyl]-2-(2,2,4-trimethylpyrrolidin-1-yl)pyridine-3-carboxamide] | < 3 | – | –
7 | COc1ccccc1CN(C)c1cccc(S(=O)(=O)NC(=O)c2cccnc2N2CC(C)CC2(C)C)n1 (stereo not shown) [Compound 2090, N—[[6-[(2-methoxyphenyl)methyl-methyl-amino]-2-pyridyl]sulfonyl]-2-(2,2,4-trimethylpyrrolidin-1-yl)pyridine-3-carboxamide] | < 3 | – | –
8 | CC(C)COc1cc(F)cc(-c2ccc(C(=O)NS(=O)(=O)c3cccc(N)n3)c(C3=CC(C)CC3(C)C)n2)c1 (single isomer, unassigned) [Compound 2039, N-[(6-amino-2-pyridyl)sulfonyl]-6-(3-fluoro-5-isobutoxy-phenyl)-2-(3,5,5-trimethylcyclopenten-1-yl)pyridine-3-carboxamide] | < 3 | – | –
9 | Cc1cc(C)c(Oc2nc(C)ccc2C(=O)NS(=O)(=O)c2ccn[nH]2)c(C)c1 [Compound 670, 6-methyl-N-(1H-pyrazol-5-ylsulfonyl)-2-(2,4,6-trimethylphenoxy)pyridine-3-carboxamide] | – | ++ (“++” means between 3 uM and 10 uM) | –
10 | Cc1cccc(C)c1Cn1nc(C(C)(C)C)cc1C(=O)NS(=O)(=O)c1ccccc1N [Compound 88, N-(2-aminophenyl)sulfonyl-5-tert-butyl-2-[(2,6-dimethylphenyl)methyl]pyrazole-3-carboxamide] | – | +++ (“+++” means <3 uM) | –
11 | Cc1cc(C)c(Cn2nc(OC(C)c3ccccc3)cc2C(=O)NS(=O)(=O)c2cccc(N)c2)c(C)c1 (stereo not shown) [Compound 278, N-(3-aminophenyl)sulfonyl-5-(1-phenylethoxy)-2-[(2,4,6-trimethylphenyl)methyl]pyrazole-3-carboxamide] | – | ++ (“++” means between 3 uM and 10 uM) | –
12 | C[C@@H]1CN(c2nc(C3CCC(C(F)(F)F)CC3)ccc2C(=O)NS(=O)(=O)c2cccnc2N)C(C)(C)C1 (single isomer, unassigned) [Compound 2077] | < 3 | – | –
13 | CC(C)COc1cc(F)cc(-c2ccc(C(=O)NS(=O)(=O)c3ccn[nH]3)c(N3CCCCCC3)n2)c1 [Compound 734, 2-(azepan-1-yl)-6-(3-fluoro-5-isobutoxy-phenyl)-N-(1H-pyrazol-5-ylsulfonyl)pyridine-3-carboxamide] | – | +++ (“+++” means <3 uM) | –
14 | Cc1cc(C)c(Oc2ccc(C(C)(C)C)nc2C(=O)NS(=O)(=O)c2cccc(N)c2)c(C)c1 [Compound 106, N-(3-aminophenyl)sulfonyl-6-tert-butyl-3-(2,4,6-trimethylphenoxy)pyridine-2-carboxamide] | – | +++ (“+++” means <3 uM) | –

Now from value to molecule, other results behind:

Row | EC30 [1] [µM] | EC30 [2] | SMILES | other results
15 | – | +++ (“+++” means <3 uM) | CC(C)Oc1ccc(-c2ccc(C(=O)NS(=O)(=O)c3cccc(N)n3)c(N3CCC(Cc4ccccc4)C3)n2)cn1 (stereo not shown) [Compound 647, N-[(6-amino-2-pyridyl)sulfonyl]-2-(3-benzylpyrrolidin-1-yl)-6-(6-isopropoxy-3-pyridyl)pyridine-3-carboxamide] | –
16 | – | ++ (“++” means between 3 uM and 10 uM) | COc1cc(-c2ccc(C(=O)NS(=O)(=O)c3cccc(N)n3)c(Oc3c(C)cc(C)cc3C)n2)ccc1O [Compound 768, N-[(6-amino-2-pyridyl)sulfonyl]-6-(4-hydroxy-3-methoxy-phenyl)-2-(2,4,6-trimethylphenoxy)pyridine-3-carboxamide] | –
17 | – | +++ (“+++” means <3 uM) | Cc1cc(C)c(Oc2nc(-c3ccc4c(c3)OCCCO4)ccc2C(=O)NS(=O)(=O)c2cccc(N)n2)c(C)c1 [Compound 14, N-[(6-amino-2-pyridyl)sulfonyl]-6-(3,4-dihydro-2H-1,5-benzodioxepin-7-yl)-2-(2,4,6-trimethylphenoxy)pyridine-3-carboxamide] | –
18 | – | +++ (“+++” means <3 uM) | Cc1cccc(C)c1Oc1nc(C(C)(C)C)ccc1C(=O)NS(=O)(=O)c1cccc(N)c1 [Compound 286, N-(3-aminophenyl)sulfonyl-6-tert-butyl-2-(2,6-dimethylphenoxy)pyridine-3-carboxamide] | –
19 | < 3 | – | Cc1cc(-c2ccc(C(=O)NS(=O)(=O)c3cccc(N)n3)c(N3C[C@@H](C)CC3(C)C)n2)cc(OCCOC(C)C)n1 [Compound 2079, N-[(6-amino-2-pyridyl)sulfonyl]-6-[2-(2-isopropoxyethoxy)-6-methyl-4-pyridyl]-2-[(4S)-2,2,4-trimethylpyrrolidin-1-yl]pyridine-3-carboxamide] | –
20 | – | +++ (“+++” means <3 uM) | CCOc1ccc(-c2ccc(C(=O)NS(=O)(=O)c3cccc(N)n3)c(Oc3c(C)cc(C)cc3C)n2)c(F)c1 [Compound 602, N-[(6-amino-2-pyridyl)sulfonyl]-6-(4-ethoxy-2-fluoro-phenyl)-2-(2,4,6-trimethylphenoxy)pyridine-3-carboxamide] | –
21 | – | +++ (“+++” means <3 uM) | CC(C)Oc1ccc(-c2ccc(C(=O)NS(=O)(=O)c3cccc(N)n3)c(N3CCC4(CCC4)CC3)n2)cn1 [Compound 733, N-[(6-amino-2-pyridyl)sulfonyl]-2-(7-azaspiro[3.5]nonan-7-yl)-6-(6-isopropoxy-3-pyridyl)pyridine-3-carboxamide] | –
22 | – | + (“+” means greater than 10 uM) | CCOc1ccc(-c2ccc(C(=O)NS(=O)(=O)c3cccc(N)n3)c(-c3ccc(C)cc3)n2)cc1 [Compound 409, N-[(6-amino-2-pyridyl)sulfonyl]-6-(4-ethoxyphenyl)-2-(p-tolyl)pyridine-3-carboxamide] | –
